From PubChem BioAssay AID256 (DTP/NCI, 2004)
Values joined by “and” are separate entries in the source; they are usually repeats but may differ in a detail not shown here. Equal entries are not always repeated. Toxic doses and inconclusive results are not listed. Rule for the calls: active = survival T/C of 150% or more; inactive = T/C below 125% in these data.

Tested on: CD2F1 mice, L1210 leukemia ip, survival T/C
Assay: NCI In Vivo Anticancer Drug Screen. Data for tumor model L1210 Leukemia (intraperitoneal) in CD2F1 (CDF1) mice
Conditions: higher = longer survival
Method in brief: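 Activity against a transplanted murine tumor was judged by comparing the compound group with a vehicle group. The outcome in the treated animals was divided by that in the controls.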

[1] = endpoint: mean survival time, dose: 100.0 mg/kg/injection, schedule: Q04DX003 (ip), vehicle: saline
[2] = endpoint: mean survival time, dose: 200.0 mg/kg/injection, schedule: Q04DX003 (ip), vehicle: saline
[3] = endpoint: mean survival time, dose: 400.0 mg/kg/injection, schedule: Q04DX003 (ip), vehicle: saline
[4] = endpoint: mean survival time, dose: 100.0 mg/kg/injection, schedule: Q01DX001 (ip), vehicle: saline with Tween-80
[5] = endpoint: mean survival time, dose: 200.0 mg/kg/injection, schedule: Q01DX001 (ip), vehicle: saline with Tween-80
[6] = endpoint: mean survival time, dose: 400.0 mg/kg/injection, schedule: Q01DX001 (ip), vehicle: saline with Tween-80
[7] = endpoint: mean survival time, dose: 100.0 mg/kg/injection, schedule: Q04DX003 (ip), vehicle: saline with Tween-80
[8] = endpoint: mean survival time, dose: 200.0 mg/kg/injection, schedule: Q04DX003 (ip), vehicle: saline with Tween-80
[9] = endpoint: mean survival time, dose: 400.0 mg/kg/injection, schedule: Q04DX003 (ip), vehicle: saline with Tween-80

Measured: T/C

CCC(=O)O[C@H]1CC[C@H]2[C@@H]3C[C@H](F)C4=CC(=O)CC[C@]4(C)[C@H]3CC[C@]12C
inactive: [1] 102 % of control | [2] 95 % of control | [3] 95 % of control

OCC(F)(F)C(F)(F)C(F)(F)CO
inactive: [1] 101 % of control | [2] 107 % of control | [3] 104 % of control

O=C(O)C1C2CC3OC(=O)C1C3C2 (centres undefined)
inactive: [1] 94 % of control | [2] 93 % of control | [3] 96 % of control

COC(=O)C(C(=O)c1ccccc1)c1ccccc1 (centres undefined)
inactive: [4] 94 % of control | [5] 97 % of control | [6] 90 % of control

CC(=O)OC(CCl)C(Cl)CCl (centres undefined)
inactive: endpoint: mean survival time, dose: 12.5 mg/kg/injection, schedule: Q04DX002 (ip), vehicle: saline with Tween-80 103 % of control | endpoint: mean survival time, dose: 25.0 mg/kg/injection, schedule: Q04DX002 (ip), vehicle: saline with Tween-80 106 % of control | endpoint: mean survival time, dose: 50.0 mg/kg/injection, schedule: Q04DX002 (ip), vehicle: saline with Tween-80 92 % of control | endpoint: mean survival time, dose: 100.0 mg/kg/injection, schedule: Q01DX001 (ip), vehicle: saline sonified 95 % of control | endpoint: mean survival time, dose: 200.0 mg/kg/injection, schedule: Q01DX001 (ip), vehicle: saline sonified 95 % of control | endpoint: mean survival time, dose: 400.0 mg/kg/injection, schedule: Q01DX001 (ip), vehicle: saline sonified 108 % of control

Cc1ccc(S(=O)(=O)N/N=C/c2ccc(C(=O)O)cc2)cc1
inactive: endpoint: mean survival time, dose: 12.5 mg/kg/injection, schedule: Q04DX003 (ip), vehicle: other 101 % of control | endpoint: mean survival time, dose: 25.0 mg/kg/injection, schedule: Q04DX003 (ip), vehicle: other 97 % of control | endpoint: mean survival time, dose: 50.0 mg/kg/injection, schedule: Q04DX003 (ip), vehicle: other 106 % of control | endpoint: mean survival time, dose: 100.0 mg/kg/injection, schedule: Q04DX003 (ip), vehicle: other 95 % of control | endpoint: mean survival time, dose: 200.0 mg/kg/injection, schedule: Q04DX003 (ip), vehicle: other 95 % of control | endpoint: mean survival time, dose: 400.0 mg/kg/injection, schedule: Q04DX003 (ip), vehicle: other 106 % of control

S=c1nc(-c2ccncc2)[nH][nH]1
inactive: endpoint: mean survival time, dose: 25.0 mg/kg/injection, schedule: Q01DX009 (ip), vehicle: saline sonified 107 % of control | endpoint: mean survival time, dose: 50.0 mg/kg/injection, schedule: Q01DX009 (ip), vehicle: saline sonified 98 % of control | endpoint: mean survival time, dose: 100.0 mg/kg/injection, schedule: Q01DX009 (ip), vehicle: saline sonified 107 % of control | [7] 100 % of control

NC(=O)Oc1cccc(OC(N)=O)c1
inactive: endpoint: mean survival time, dose: 25.0 mg/kg/injection, schedule: Q01DX009 (ip), vehicle: water 95 % of control | endpoint: mean survival time, dose: 50.0 mg/kg/injection, schedule: Q01DX009 (ip), vehicle: water 106 % of control | endpoint: mean survival time, dose: 100.0 mg/kg/injection, schedule: Q01DX009 (ip), vehicle: water 106 % of control | endpoint: mean survival time, dose: 200.0 mg/kg/injection, schedule: Q01DX009 (ip), vehicle: water 104 % of control | endpoint: mean survival time, dose: 400.0 mg/kg/injection, schedule: Q01DX009 (ip), vehicle: water 106 % of control

O=[N+]([O-])c1ccc(-c2ccccc2)cc1
inactive: [7] 100 % of control | [8] 96 % of control | [9] 97 % of control

CC(C)C(O)C(C)[N+](=O)[O-] (centres undefined)
inactive: endpoint: mean survival time, dose: 25.0 mg/kg/injection, schedule: Q01DX001 (ip), vehicle: saline with Tween-80 86 % of control | endpoint: mean survival time, dose: 50.0 mg/kg/injection, schedule: Q01DX001 (ip), vehicle: saline with Tween-80 96 % of control

CCCCCCCCCCCCCCCCOS(=O)(=O)O
inactive: endpoint: mean survival time, dose: 37.5 mg/kg/injection, schedule: Q01DX009 (ip), vehicle: saline 98 % of control | endpoint: mean survival time, dose: 75.0 mg/kg/injection, schedule: Q01DX009 (ip), vehicle: saline 97 % of control | endpoint: mean survival time, dose: 150.0 mg/kg/injection, schedule: Q01DX009 (ip), vehicle: saline 98 % of control

C#CCOC1CCCC1O (centres undefined)
inactive: endpoint: mean survival time, dose: 100.0 mg/kg/injection, schedule: Q04DX003 (ip), vehicle: acetone 101 % of control

CC(=O)Nc1ccc2oc(=O)ccc2c1
inactive: [7] 101 % of control | [8] 101 % of control | [9] 101 % of control

CC1OC1c1ccc(-c2ccc(C3OC3C)cc2)cc1 (centres undefined)
inactive: endpoint: mean survival time, dose: 150.0 mg/kg/injection, schedule: Q01DX Z (ip), vehicle: saline 101 % of control

O=c1nc(-c2ccco2)sc(=O)[nH]1
inactive: endpoint: median survival time, dose: 25.0 mg/kg/injection, schedule: Q01DX009 (ip), vehicle: Klucel (hydroxypropylcellulose) (HPC) 100 % of control | endpoint: median survival time, dose: 50.0 mg/kg/injection, schedule: Q01DX009 (ip), vehicle: Klucel (hydroxypropylcellulose) (HPC) 106 % of control | endpoint: median survival time, dose: 100.0 mg/kg/injection, schedule: Q01DX009 (ip), vehicle: Klucel (hydroxypropylcellulose) (HPC) 96 % of control | endpoint: median survival time, dose: 200.0 mg/kg/injection, schedule: Q01DX009 (ip), vehicle: Klucel (hydroxypropylcellulose) (HPC) 102 % of control

Nc1nc2c(ncn2-c2ccc3ccccc3c2)c(=O)[nH]1
inactive: [4] 91 % of control | [5] 88 % of control | [6] 95 % of control

CNC(=S)Nc1ncn[nH]1
inactive: endpoint: mean survival time, dose: 12.5 mg/kg/injection, schedule: Q01DX001 (ip), vehicle: carboxymethylcellulose (CMC) 95 % of control | endpoint: mean survival time, dose: 25.0 mg/kg/injection, schedule: Q01DX001 (ip), vehicle: carboxymethylcellulose (CMC) 93 % of control | endpoint: mean survival time, dose: 50.0 mg/kg/injection, schedule: Q01DX001 (ip), vehicle: carboxymethylcellulose (CMC) 93 % of control | endpoint: mean survival time, dose: 100.0 mg/kg/injection, schedule: Q01DX001 (ip), vehicle: carboxymethylcellulose (CMC) 91 % of control | endpoint: mean survival time, dose: 200.0 mg/kg/injection, schedule: Q01DX001 (ip), vehicle: carboxymethylcellulose (CMC) 91 % of control

NC(=N\O)/C(N)=N/O.[Cl][Pt][Cl]
inactive: endpoint: median survival time, dose: 3.12 mg/kg/injection, schedule: Q04DX003 (ip), vehicle: saline 100 % of control | endpoint: median survival time, dose: 6.25 mg/kg/injection, schedule: Q04DX003 (ip), vehicle: saline 103 % of control | endpoint: median survival time, dose: 12.5 mg/kg/injection, schedule: Q04DX003 (ip), vehicle: saline 97 % of control | endpoint: median survival time, dose: 25.0 mg/kg/injection, schedule: Q04DX003 (ip), vehicle: saline 103 % of control | endpoint: median survival time, dose: 50.0 mg/kg/injection, schedule: Q04DX003 (ip), vehicle: saline 109 % of control | endpoint: median survival time, dose: 100.0 mg/kg/injection, schedule: Q04DX003 (ip), vehicle: saline 112 % of control | endpoint: median survival time, dose: 200.0 mg/kg/injection, schedule: Q04DX003 (ip), vehicle: saline 123 % of control

OCC1OC(n2ccc3c2ncn2cnnc32)C(O)C1O (centres undefined)
inactive: endpoint: mean survival time, dose: 6.25 mg/kg/injection, schedule: Q01DX005 (ip), vehicle: water 104 % of control | endpoint: mean survival time, dose: 12.5 mg/kg/injection, schedule: Q01DX005 (ip), vehicle: water 103 % of control | endpoint: mean survival time, dose: 25.0 mg/kg/injection, schedule: Q01DX005 (ip), vehicle: water 92 % of control | endpoint: mean survival time, dose: 50.0 mg/kg/injection, schedule: Q01DX005 (ip), vehicle: water 92 % of control | endpoint: mean survival time, dose: 100.0 mg/kg/injection, schedule: Q01DX005 (ip), vehicle: water 92 % of control | endpoint: mean survival time, dose: 200.0 mg/kg/injection, schedule: Q01DX005 (ip), vehicle: water 89 % of control | endpoint: mean survival time, dose: 400.0 mg/kg/injection, schedule: Q01DX005 (ip), vehicle: water 95 % of control

O=P(c1ccccc1)(c1ccccc1)c1ccccc1
inactive: endpoint: mean survival time, dose: 100.0 mg/kg/injection, schedule: Q01DX009 (ip), vehicle: saline with Tween-80 97 % of control | [7] 97 % of control | endpoint: mean survival time, dose: 200.0 mg/kg/injection, schedule: Q01DX009 (ip), vehicle: saline with Tween-80 95 % of control | [8] 100 % of control | endpoint: mean survival time, dose: 400.0 mg/kg/injection, schedule: Q01DX009 (ip), vehicle: saline with Tween-80 100 % of control

CC(=O)c1cno[n+]1[O-]
inactive: endpoint: mean survival time, dose: 5.0 mg/kg/injection, schedule: Q01DX009 (ip), vehicle: saline with Tween-80 97 % of control | endpoint: mean survival time, dose: 10.0 mg/kg/injection, schedule: Q01DX009 (ip), vehicle: saline with Tween-80 113 % of control

NC(=S)N/N=C/c1cc(-c2cccc(N)c2)ccn1
inactive: endpoint: mean survival time, dose: 6.25 mg/kg/injection, schedule: Q01DX009 (ip), vehicle: saline with Tween-80 113 % of control | endpoint: mean survival time, dose: 9.4 mg/kg/injection, schedule: Q01DX009 (ip), vehicle: saline with Tween-80 116 % of control and 104 % of control | endpoint: mean survival time, dose: 12.5 mg/kg/injection, schedule: Q01DX009 (ip), vehicle: saline with Tween-80 115 % of control | endpoint: mean survival time, dose: 18.8 mg/kg/injection, schedule: Q01DX009 (ip), vehicle: saline with Tween-80 115 % of control and 118 % of control | endpoint: mean survival time, dose: 25.0 mg/kg/injection, schedule: Q01DX009 (ip), vehicle: saline with Tween-80 123 % of control | endpoint: mean survival time, dose: 37.5 mg/kg/injection, schedule: Q01DX009 (ip), vehicle: saline with Tween-80 115 % of control and 119 % of control | endpoint: mean survival time, dose: 75.0 mg/kg/injection, schedule: Q01DX009 (ip), vehicle: saline with Tween-80 89 % of control and 104 % of control and 107 % of control

CC(C)CNC1=CC(=O)c2ccccc2C1=O
inactive: [7] 95 % of control | [8] 98 % of control | [9] 101 % of control
